Measurements as given in patent US20030180808A1, “Drug signatures” (priority 2002, published 2003).
Entries after “also recorded” stand apart in the source; their conditions may differ. Where two headings read alike, the source gives them in different places.

Experiments:
[1] = rats, from the literature or experience, cited from earlier work
[2] = molecular target: T1, PXR receptors (Mus musculus, UniProt O54915); conditions: cited from earlier work
T1 sequence (O54915 1-431): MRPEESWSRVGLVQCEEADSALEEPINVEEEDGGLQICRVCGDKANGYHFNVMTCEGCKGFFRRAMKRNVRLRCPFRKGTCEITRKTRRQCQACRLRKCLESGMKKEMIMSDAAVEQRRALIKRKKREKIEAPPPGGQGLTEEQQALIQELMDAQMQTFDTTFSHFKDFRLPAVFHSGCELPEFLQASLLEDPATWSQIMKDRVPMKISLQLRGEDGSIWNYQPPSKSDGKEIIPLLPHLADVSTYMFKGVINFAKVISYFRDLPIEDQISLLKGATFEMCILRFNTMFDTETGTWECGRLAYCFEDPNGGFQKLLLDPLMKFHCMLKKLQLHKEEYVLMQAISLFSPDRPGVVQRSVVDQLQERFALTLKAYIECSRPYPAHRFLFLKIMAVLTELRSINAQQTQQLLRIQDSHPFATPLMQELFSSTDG

[3] = tested on: 123 assays completed (panel of sites of drug action and drug toxicity); experiment: Molecular pharmacology assay panel (MDS-Pharma Services catalog); conditions: for activity in the 123 assays completed: <50% inhibition binned as 0, preliminary test at 30 μM
[4] = molecular target: T2, PPARα (Homo sapiens, UniProt Q07869); conditions: cited from earlier work
T2 sequence (Q07869 1-468): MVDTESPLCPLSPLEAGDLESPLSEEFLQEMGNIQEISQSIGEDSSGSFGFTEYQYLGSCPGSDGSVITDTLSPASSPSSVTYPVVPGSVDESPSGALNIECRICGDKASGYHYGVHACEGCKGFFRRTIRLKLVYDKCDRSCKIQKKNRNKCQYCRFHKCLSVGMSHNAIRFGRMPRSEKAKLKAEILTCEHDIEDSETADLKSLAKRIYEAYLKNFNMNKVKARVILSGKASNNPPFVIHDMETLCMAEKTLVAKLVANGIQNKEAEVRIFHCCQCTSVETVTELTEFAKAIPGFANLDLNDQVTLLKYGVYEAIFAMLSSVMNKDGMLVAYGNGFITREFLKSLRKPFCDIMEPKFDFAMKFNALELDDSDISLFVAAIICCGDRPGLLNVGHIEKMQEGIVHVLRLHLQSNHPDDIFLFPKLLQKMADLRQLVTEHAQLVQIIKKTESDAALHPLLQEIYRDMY

[5] = molecular target: T3, estrogen receptor (Homo sapiens, UniProt P03372); conditions: read-out: EC50 stimulation of ER; cited from earlier work
T3 sequence (P03372 1-595): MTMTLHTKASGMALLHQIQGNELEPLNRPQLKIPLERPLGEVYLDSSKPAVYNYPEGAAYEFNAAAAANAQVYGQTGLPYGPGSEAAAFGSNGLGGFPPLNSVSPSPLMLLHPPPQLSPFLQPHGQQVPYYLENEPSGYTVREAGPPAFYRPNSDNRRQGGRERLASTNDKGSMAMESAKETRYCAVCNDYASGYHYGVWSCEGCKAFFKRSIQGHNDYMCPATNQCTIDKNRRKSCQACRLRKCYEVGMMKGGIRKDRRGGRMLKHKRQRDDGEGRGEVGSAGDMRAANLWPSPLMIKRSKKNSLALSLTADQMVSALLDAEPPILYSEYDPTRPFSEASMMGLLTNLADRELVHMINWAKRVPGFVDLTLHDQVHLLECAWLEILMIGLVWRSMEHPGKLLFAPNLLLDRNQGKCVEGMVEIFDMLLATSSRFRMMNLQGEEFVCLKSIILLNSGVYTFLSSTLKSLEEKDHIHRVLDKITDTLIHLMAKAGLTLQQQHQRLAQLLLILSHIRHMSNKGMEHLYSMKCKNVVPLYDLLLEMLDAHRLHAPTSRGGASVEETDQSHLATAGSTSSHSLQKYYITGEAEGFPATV

[6] = molecular target: T3, estrogen receptor; experiment: Molecular pharmacology panel assay: estrogen receptor
[7] = tested on: site-2 sodium channel; experiment: Molecular pharmacology panel assay: site-2 sodium channel
[8] = hypertriglyceridemic patients; known side effect; cited from earlier work

| Molecule | maximum tolerated dose (MTD) ([1]; subcutaneously in arrachis oil) | maximum tolerated dose (MTD) ([1]; oral gavage in 1% NaCMC) | activity in the 123 assays completed [3] | also measured |
| --- | --- | --- | --- | --- |
| CC(C)(c1ccc(O)cc1)c1ccc(O)cc1 [BPA, bisphenol A] | 150 mg/kg |  |  | activity on PXR [2]: completely inactive |
| CCOC(=O)C(C)(C)Oc1ccc(Cl)cc1 [Clofibrate, clofibrate] |  | 250 mg/kg | no activity |  |
| CCCCC(CC)COC(=O)c1ccccc1C(=O)OCC(CC)CCCC (centres unmarked) [DEHP] |  | 1,000 mg/kg | no activity | stimulation of PPARα [4]: potently stimulate; EC50 [5]: ~1000 nM |
| C[C@]12CC[C@@H]3c4ccc(O)cc4CC[C@H]3[C@@H]1CC[C@@H]2O [Estradiol] |  |  |  | activity on PXR [2]: completely inactive |
| CC(C)OC(=O)C(C)(C)Oc1ccc(C(=O)c2ccc(Cl)cc2)cc1 [Fenofibrate] |  | 1,000 mg/kg |  | interaction with the estrogen receptor [6]: interacted weakly; interaction with the site-2 sodium channel [7]: interacted weakly |
| Cc1ccc(C)c(OCCCC(C)(C)C(=O)O)c1 [Gemfibrozil, gemfibrozil] |  | 300 mg/kg | no activity | effect on LDL levels [8]: induce an increase in LDL (low density lipoprotein) levels; also recorded: induces an increase in LDL levels |
| CC(C)(C)CC(C)(C)c1ccc(O)cc1 [OP] | 450 mg/kg |  |  | number of assays in which compound interacted ([3]; of the 123 assays conducted): 16 |
| C[C@]12CC[C@@H]3c4ccc(OC(=O)c5ccccc5)cc4CC[C@H]3[C@@H]1CC[C@@H]2O [estradiol benzoate, Estradiol benzoate] | 2 mg/kg |  |  |  |
| nonylphenol |  |  |  | EC50 [5]: ~1000 nM; EC50 ([2]; read-out: EC50 stimulation of PXR receptors): ~500 nM |
